From PubChem BioAssay (NCI) come the findings set out here.

Holding throughout (test): DTP human tumour cell line panel, 48 h
Test [1] has as its system SNB-75 CNS.
Test [2] concerns NCI-H522 lung.
The subject of test [3] is RXF 393 renal.
For test [4], the system named is MDA-MB-435.
Test [5] has as its system HOP-62 NSCLC.
Test [6] relates to OVCAR-8 ovarian.
The test system of test [7] is HL-60(TB) leukemia.
Test [8] concerns SF-268 CNS.
For test [9], the system named is M14 melanoma.
The subject of test [10] is A549 NSCLC.

“And” between values parts separate entries of the source, which are not always exact repeats. Equal values may be shown once.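 Interpolation was linear, between the two tested concentrations surrounding the appropriate level; five concentrations were tested over 48 hours in 96-well plates. The concentration for 50% growth inhibition is given as GI50. At the TGI there is no net growth.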

Usually GI50 stands for the concentration giving 50% growth inhibition. The term TGI denotes the concentration at which net growth stops. Low readings indicate more potent growth arrest, high ones less potent growth arrest. As for `O=C1c2cccnc2C(=O)c2c1c(C(=O)OCCCN1CCCCC1)c1ccccn21`, the GI50 in test [1] was less than 0.01 µM; in test [2], less than 0.01 µM; in test [3], less than 0.0108 µM; in test [4] it was 0.0142 µM; in [5] it was less than 0.01 µM; in test [6], 0.0102 µM. Moreover, the GI50 in test [7] is 0.122 µM; in [8] it was less than 0.01 µM; in test [9] it was less than 0.01 µM; in test [10], less than 0.01 µM. Besides, the TGI was less than 0.0187 µM in test [1]; less than 0.0156 µM in test [2]; less than 0.019 µM in test [3]; 0.0417 µM in [4]; 0.0203 µM in test [5]; 1.19 µM in test [6]. Further, the TGI in test [7] is 7.5 µM; in test [8], 0.207 µM; in test [9], 0.0384 µM; in [10], less than 0.0182 µM.

In the case of `COC(=O)[C@H](Cc1cn(C)cn1)NC(=O)[C@H](C)NC(=O)Nc1cc(C(F)(F)F)cc(C(F)(F)F)c1`, the GI50 in test [1], in [2], in test [3], in test [4], in test [5] and in [6] was more than 10 µM each time. For the same compound, the GI50 in [7], in test [8], in test [9] and in test [10] was more than 10 µM in each case. Also, the TGI in [1], in test [2], in test [3], in test [4], in test [5] and in test [6] was more than 10 µM throughout. In addition, the TGI in test [7], in test [8], in test [9] and in test [10] was more than 10 µM throughout.

Turning to `Cc1cc(O)c(C2=NN(c3ccc(S(N)(=O)=O)cc3)C(/C=C/c3ccccc3)C2)cc1Cl` (configuration not stated), the GI50 in [1] was 3.39 µM; in [2], 4.62 µM; in test [3], 6.69 µM; in test [4], 8.87 µM; in test [5], 3.94 µM; in test [6], 3.03 µM. In addition, the GI50 is 68.3 µM in test [7], 5.63 µM in test [8], 6.16 µM in test [9] and 11 µM in [10]. Also, the TGI in test [1] was 16.1 µM; in test [2], 19.4 µM; in test [3], 20.2 µM; in [4], 24 µM; in test [5], 14.1 µM; in test [6] it was 20.2 µM. In addition, the TGI in [7] was more than 100 µM; in test [8] it was 19.5 µM; in test [9] it was 19.3 µM; in test [10], 30.8 µM.

As for `COc1ccc(C(=O)c2sc3nc(-c4cccs4)ccc3c2N)cc1OC`, the GI50 in test [1] is 4.06 µM; in [2], 2.86 µM; in [3], 9.98 µM; in test [4], 1.43 µM; in test [5], 17.6 µM; in test [6], 5.56 µM. The GI50 in test [7] is 4.14 µM; in test [8], 8.33 µM; in test [9] it was 4.27 µM; in test [10] it was 4.71 µM. In addition, the TGI in test [1] is more than 100 µM; in [2], 95.8 µM; in test [3], more than 100 µM; in test [4], 4.76 µM; in test [5], more than 100 µM; in [6] it was more than 100 µM. The TGI in test [7], in test [8], in test [9] and in test [10] was more than 100 µM in each case.

`COc1ccc2c(c1)-c1nn(CCCN(C)C)c3ccc([N+](=O)[O-])c(c13)N2`: the GI50 was 0.197 µM and 0.573 µM in test [1]; 0.117 µM and 0.385 µM in [2]; 0.274 µM and 0.135 µM in test [3]; 0.165 µM and 0.593 µM in test [4]; 0.104 µM and 0.686 µM in test [5]; 0.468 µM and 2.9 µM in test [7]. The GI50 in [10] is 0.164 µM and 0.368 µM. In addition, the TGI is 1.02 µM and 3.85 µM in [1]; 1.03 µM and 2.26 µM in [2]; 1.33 µM and 2.05 µM in test [3]; 2.9 µM in test [4]; 1.06 µM and 5.26 µM in [5]; 4.19 µM and 5.06 µM in test [6]. In addition, the TGI was 1.82 µM and 9.36 µM in test [7]; 6.12 µM and 6.94 µM in test [8]; 4.7 µM and 7 µM in test [9]; 2.51 µM and 2.28 µM in test [10].

Turning to `NC1(Cc2ccc(Cl)cc2)CCN(c2ncnc3[nH]ccc23)CC1`, the GI50 in test [1] is 0.437 µM; in test [2] it was 12.6 µM; in test [3], 1.41 µM; in [4] it was 4.67 µM; in test [5], 3.63 µM; in test [6] it was 11.1 µM. Besides, the GI50 in test [7] was 3.39 µM; in test [8], 6.66 µM; in test [9], 8.58 µM; in test [10], 5.02 µM. In addition, the TGI was determined as 4.37 µM in test [1]; 27.7 µM in [2]; 7.12 µM in test [3]; 18.1 µM in [4]; 17.2 µM in test [5]; 25.4 µM in [6]. In addition, the TGI in [7] amounted to 17.6 µM; in test [8], 21.3 µM; in [9] it was 23.6 µM; in test [10] it was 21.6 µM.

With `CC(C)(C)OC(=O)NCc1cccc(N=C=S)c1`, the GI50 in [1] is 14.1 µM; in test [2] it was 17.4 µM; in [3] it was 16.8 µM; in [4], 18.5 µM; in test [5], 21.8 µM; in test [6], 29.6 µM. Moreover, the GI50 in test [7] was 28.2 µM; in [8], 21 µM; in [9], 15.3 µM; in test [10], 28 µM. Further, the TGI was more than 59.6 µM in [1]; 44.1 µM in test [2]; 36.1 µM in test [3]; 63.1 µM in test [4]; 55.8 µM in test [5]; more than 92.7 µM in test [6]. Also, the TGI was found to be 69.8 µM in test [7], 64.9 µM in test [8], 37 µM in test [9] and 72.1 µM in test [10].
